Assay results as given in DBAASP.
In brackets after ≈: the same amount, converted by molar mass.

How the values were obtained:
Assay in all cases: ≥ marks a high value that may be exact or a test limit, other limits are often not marked, values filed in µg/mL are converted to µM
[1] = system: Escherichia coli K12 MG1655
[2] = system: Salmonella enterica subsp. enterica serovar Typhimurium ATCC 14028
[3] = system: Staphylococcus epidermidis
[4] = system: Escherichia coli UTI89
[5] = system: Bacillus subtilis VKM B-501
[6] = system: Staphylococcus aureus 209P
[7] = system: Escherichia coli C600
[8] = system: Escherichia coli ATCC 25922
[9] = system: Bacillus subtilis ATCC 6051
[10] = system: Pseudomonas aeruginosa
[11] = system: Klebsiella pneumoniae ATCC 700603
[12] = system: Klebsiella pneumoniae
[13] = system: Pseudomonas aeruginosa ATCC 27853
[14] = system: Klebsiella pneumoniae ATCC BAA-2146
[15] = system: Staphylococcus aureus ATCC 43300
[16] = system: Cryptococcus neoformans ATCC 208821
[17] = system: Acinetobacter baumannii
[18] = system: Klebsiella pneumoniae ATCC 13883
[19] = system: Candida albicans ATCC 90028
[20] = system: Acinetobacter baumannii ATCC 19606

`CC[C@H](C)[C@H](NC(=O)[C@H](CCCCN)NC(=O)[C@H](CCC(N)=O)NC(=O)[C@H](Cc1c[nH]c2ccccc12)NC(=O)[C@@H](NC(=O)[C@H](CCCCN)NC(=O)[C@@H](N)CCCCN)[C@@H](C)CC)C(=O)N[C@@H](CCCCN)C(=O)N[C@@H](CC(N)=O)C(=O)N[C@@H](Cc1ccccc1)C(=O)N[C@@H](Cc1ccccc1)C(=O)N[C@@H](CCC(N)=O)C(=O)N[C@@H](CCCCN)C(=O)N[C@@H](CC(C)C)C(=O)O` [KKIWQKIKNFFQKL] was tested, and the MIC [1] was 6.25 µM (≈ 11.6 µg/mL), the MIC [2] was 50 µM (≈ 92.5 µg/mL) and the MIC [3] was 29 µM (≈ 53.6 µg/mL). It also gave an MIC [4] of 6.25 µM (≈ 11.6 µg/mL).

`CC[C@H](C)[C@H](NC(=O)[C@H](C)NC(=O)[C@H](CCCCN)NC(=O)[C@H](CCCN=C(N)N)NC(=O)CNC(=O)[C@H](Cc1ccccc1)NC(=O)[C@H](CCCCN)NC(=O)[C@H](CCCCN)NC(=O)[C@H](CCC(N)=O)NC(=O)[C@H](CC(C)C)NC(=O)[C@H](CCCCN)NC(=O)CNC(=O)[C@H](Cc1ccccc1)NC(=O)[C@H](CC(C)C)NC(=O)CN)C(=O)N[C@@H](CO)C(=O)N[C@@H](Cc1ccc(O)cc1)C(=O)N[C@@H](C)C(=O)N[C@H](C(=O)N[C@@H](CCCCN)C(=O)N[C@@H](CCCCN)C(=O)N[C@@H](C)C(=O)N[C@@H](CCCN=C(N)N)C(=O)NCC(=O)N[C@@H](CCCCN)C(=O)N[C@@H](Cc1cnc[nH]1)C(=O)O)C(C)C` [GLFGKLQKKFGRKAISYAVKKARGKH] gave an MIC [5] of 1.5 µM (≈ 4.38 µg/mL), an MIC [6] of no less than 36 µM and an MIC [7] of 6 µM (≈ 17.5 µg/mL).

Molecule `CC[C@H](C)[C@@H]1NC(=O)CNC(=O)[C@H](CCCN=C(N)N)NC(=O)[C@H](Cc2ccc(O)cc2)NC(=O)[C@@H]2CSSC[C@H](NC1=O)C(=O)N[C@@H](Cc1ccc(O)cc1)C(=O)N[C@@H](CCCN=C(N)N)C(=O)N[C@@H](CCCN=C(N)N)C(=O)N[C@H](C(=O)N[C@@H](C)C(=O)O)CSSC[C@H](NC(=O)[C@H](Cc1c[nH]c3ccccc13)NC(=O)[C@@H](N)CCCCN)C(=O)N[C@@H](Cc1ccccc1)C(=O)N[C@@H](CCCN=C(N)N)C(=O)N[C@@H](C(C)C)C(=O)N2` [KWCFRVCYRGICYRRCA] has an MIC [8] of 0.0069 µM (≈ 0.015 µg/mL), an MIC [9] of 0.0069 µM (≈ 0.015 µg/mL) and an MIC [10] of 0.229 µM (≈ 0.499 µg/mL). It also gave an MIC [11] of 0.115 µM (≈ 0.25 µg/mL), an MIC [12] of 1.83 µM (≈ 3.99 µg/mL) and an MIC [13] of 0.115 µM (≈ 0.25 µg/mL). For the same molecule, the MIC [14] was 0.115 µM (≈ 0.25 µg/mL), the MIC [15] was 0.229 µM (≈ 0.499 µg/mL) and the MIC [16] was 0.115 µM (≈ 0.25 µg/mL). It also gave an MIC [17] of 0.0572 µM (≈ 0.125 µg/mL), an MIC [18] of 0.0572 µM (≈ 0.125 µg/mL) and an MIC [19] of 1.83 µM (≈ 3.99 µg/mL). For the same molecule, the MIC [20] was 0.0572 µM (≈ 0.125 µg/mL).

`CC[C@H](C)[C@@H]1NC(=O)CNC(=O)[C@H](CCCN=C(N)N)NC(=O)[C@H](Cc2ccc(O)cc2)NC(=O)[C@H](CO)NC(=O)[C@H](C(C)C)NC(=O)[C@H](CCCN=C(N)N)NC(=O)[C@H](Cc2ccccc2)NC(=O)[C@@H](NC(=O)[C@H](Cc2c[nH]c3ccccc23)NC(=O)[C@@H](N)CCCCN)CSSC[C@@H](C(=O)N[C@@H](CCCN=C(N)N)C(=O)O)NC(=O)[C@H](CCCN=C(N)N)NC(=O)[C@H](CCCN=C(N)N)NC(=O)[C@H](Cc2ccc(O)cc2)NC(=O)[C@H](C)NC1=O` [KWCFRVSYRGIAYRRCR] was tested, and the MIC [8] was 0.45 µM (≈ 0.999 µg/mL), the MIC [9] was 0.0563 µM (≈ 0.125 µg/mL) and the MIC [10] was 7.21 µM (≈ 16 µg/mL). For the same molecule, the MIC [11] was 7.21 µM (≈ 16 µg/mL), the MIC [12] was 7.21 µM (≈ 16 µg/mL) and the MIC [13] was 3.6 µM (≈ 7.99 µg/mL). It also gave an MIC [14] of 3.6 µM (≈ 7.99 µg/mL), an MIC [15] of 7.21 µM (≈ 16 µg/mL) and an MIC [16] of 0.225 µM (≈ 0.5 µg/mL). For the same molecule, the MIC [17] was 0.45 µM (≈ 0.999 µg/mL), the MIC [18] was 1.8 µM (≈ 4 µg/mL) and the MIC [19] was 0.901 µM (≈ 2 µg/mL). For the same molecule, the MIC [20] was 0.225 µM (≈ 0.5 µg/mL).
